Reference: article PMC6154976, “The potential HLA Class I-restricted epitopes derived from LeIF and TSA of Leishmania donovani evoke anti-leishmania CD8+ T lymphocyte response” (Scientific Reports, 2018)
“Also recorded” adds a separate entry of the source.

Tests used:
[1] = system: PBMCs from HLA A2 negative VL treated subjects; experiment: Intracellular IFN-γ from CD8+ T cells (FACS); format: cell-based, human; conditions: six HLA A2 negative subjects, overnight plus 6 h brefeldin-A
Method: To evaluate the ability of the selected epitopes to trigger the immune cells by CD8+ T cell dependent manner, PBMCs (1 × 10^6/ml) from five HLAA2 positive VL treated subjects were incubated for overnight in the presence or absence of peptide at 37 °C and 5% CO2. Additionally, six HLA A2 negative VL treated subjects were also considered for this study. Stimulation with SLA was run in parallel to all experiments as described previously. After overnight incubation followed by 6 h incubation with brefeldin-A (1 mg/ml), cells were harvested, washed with PBS, and stained with anti-CD3-PerCP (BD Biosciences) and anti-CD8-FITC(BD Biosciences) conjugated antibodies for 30 min at 4 °C. The cells were then washed with stain buffer, fixed and permeabilized Cytofix-Cytoperm buffer (BD Biosciences) for 20 minutes at 4 °C. The intracellular level of IFN-γ was stained with anti-IFN-γ PE-conjugated antibody (BD Biosciences) for 30 minutes and washed with perm wash buffer (BD Biosciences). A logical gate set using was used to measure the co-expression of intracellular CD8+ ve IFN-γ. At least 30 000 cells were acquired for each analysis, and the results are shown in percentage gated value (% gated).

[2] = target: HLA-A*0201 molecule on T2 cells (Homo sapiens, UniProt P04439, D140Y/D185E/D98H/E176V/E277Q/G131W/G231S/I119V/I121R/I166T/I218V/L300P/L318F/N151K/N90K/P208A/P217A/Q86G/Q94H/R138H/R169H/T345S); experiment: Peptide-binding assay (HLA stabilization assay, T2 cell line); format: cell-based; conditions: 20 μg/mL peptide, 20 hours, FI more than 1 = strong binding, Fig. S2; for fluorescence index (FI) value: T2 cells 2 × 10^5/well, serum-free RPMI, 37 °C, FACS, PE anti-HLA-A 02 (BB7.2), triplicate
Method: The efficiency of the shortlisted epitopes to stabilize the HLA-A 02 allele was measured by HLA stabilization assay using TAP-deficient human cell line that express HLA-A2 (T2 cell line) according to our previously described methodology with certain modifications. Briefly, T2 cells (2 × 10^5/well) were cultured with 20 μg/mL of individual peptides in serum-free RPMI medium for 20 hours at 37 °C in 5% CO2. The HLA stabilization assay was performed in triplicate for each peptide. The tumor HLA A2 bound 10mer peptide was used as positive control. The expression of HLA-A 02 on T2 cells was measured by PE-conjugated mouse anti-human HLA-A 02 monoclonal antibody (clone: BB7.2; Pharmingen), the samples were acquired by FACS Calibur and analyzed by CellQuest software (BD Biosciences). The binding affinity of each peptide was measured by a fluorescence index: FI = (mean PE fluorescence with the given peptide−mean PE fluorescence without peptide)/(mean […] fluorescence without peptide). The epitope with a fluorescence index (FI) more than 1 was considered as strong binding affinity epitopes.

With TLDHLLVLL [P1] the “intracellular CD3+ ve CD8+ ve IFN-γ” value [1] was “triggered the HLA A2-ve host immune cells by producing CD8+ IFN-γ; also recorded: triggered CD3+ ve CD8+ ve IFN-γ level; also recorded: enhanced CD3+ CD8+ IFN-γ”, the “fluorescence index (FI) value” [2] was “above 2” and the “binding to / stabilization of HLA-A*0201 on T2 cells, in words” value (from here on “binding to / stabilization”) [2] was “stabilized the HLA A2; also recorded: strongly bound”.
FIIDPNGMV [P8] was tested, and the “binding to / stabilization” value [2] was “relatively weakly bound”.
In the case of SMDSEYAHL [P9], the “binding to / stabilization” value [2] was “relatively weakly bound”.
In the case of RLLEAFQFV [P7], the “intracellular CD3+ ve CD8+ ve IFN-γ” value [1] was “triggered CD3+ ve CD8+ ve IFN-γ level; also recorded: enhanced CD3+ CD8+ IFN-γ”, the “fluorescence index (FI) value” [2] was “above 2” and the “binding to / stabilization” value [2] was “stabilized the HLA A2; also recorded: strongly bound”.
With MLADKTKSI [P6] the “binding to / stabilization” value [2] was “relatively weakly bound”.
For SLARRKLLL [P3], the “binding to / stabilization” value [2] was “relatively weakly bound”.
In the case of LLLAEPFPV [P4], the “intracellular CD3+ ve CD8+ ve IFN-γ” value [1] was “triggered the HLA A2-ve host immune cells by producing CD8+ IFN-γ”, the “fluorescence index (FI) value” [2] was 1.81 and the “binding to / stabilization” value [2] was “stabilized the HLA A2; also recorded: strongly bound”.
In the case of KVLTLFAEV [P5], the “intracellular CD3+ ve CD8+ ve IFN-γ” value [1] was “triggered the HLA A2-ve host immune cells by producing CD8+ IFN-γ; also recorded: triggered CD3+ ve CD8+ ve IFN-γ level; also recorded: enhanced CD3+ CD8+ IFN-γ”, the “fluorescence index (FI) value” [2] was “above 2” and the “binding to / stabilization” value [2] was “stabilized the HLA A2; also recorded: strongly bound”.
VLLEKATIL [P2] was tested, and the “fluorescence index (FI) value” [2] was “above 2” and the “binding to / stabilization” value [2] was “stabilized the HLA A2; also recorded: strongly bound”.
